Laboratory results from US9126999B2, “Tetrahydropyrazolopyrimidine compounds” (EISAI R&D MANAGEMENT CO., LTD., priority 2012, dated 2015).
Where two headings read alike, the source gives them in different places.

Tests used:
Human TLR8 = target: T1, Human TLR8 (Homo sapiens, UniProt Q9NR97); experiment: HEK-293 NF-kappaB luciferase reporter assay, CL097 stimulus; format: cell-based; conditions: human TLR8 in the HEK-293 assay format; read-out: HEK/TLR8 IC50
T1 construct: host or cells: HEK-293 stably expressing human TLR8, then transfected with pNiFty2(NF-kappaB)-luciferase
T1 sequence (Q9NR97 27-1041): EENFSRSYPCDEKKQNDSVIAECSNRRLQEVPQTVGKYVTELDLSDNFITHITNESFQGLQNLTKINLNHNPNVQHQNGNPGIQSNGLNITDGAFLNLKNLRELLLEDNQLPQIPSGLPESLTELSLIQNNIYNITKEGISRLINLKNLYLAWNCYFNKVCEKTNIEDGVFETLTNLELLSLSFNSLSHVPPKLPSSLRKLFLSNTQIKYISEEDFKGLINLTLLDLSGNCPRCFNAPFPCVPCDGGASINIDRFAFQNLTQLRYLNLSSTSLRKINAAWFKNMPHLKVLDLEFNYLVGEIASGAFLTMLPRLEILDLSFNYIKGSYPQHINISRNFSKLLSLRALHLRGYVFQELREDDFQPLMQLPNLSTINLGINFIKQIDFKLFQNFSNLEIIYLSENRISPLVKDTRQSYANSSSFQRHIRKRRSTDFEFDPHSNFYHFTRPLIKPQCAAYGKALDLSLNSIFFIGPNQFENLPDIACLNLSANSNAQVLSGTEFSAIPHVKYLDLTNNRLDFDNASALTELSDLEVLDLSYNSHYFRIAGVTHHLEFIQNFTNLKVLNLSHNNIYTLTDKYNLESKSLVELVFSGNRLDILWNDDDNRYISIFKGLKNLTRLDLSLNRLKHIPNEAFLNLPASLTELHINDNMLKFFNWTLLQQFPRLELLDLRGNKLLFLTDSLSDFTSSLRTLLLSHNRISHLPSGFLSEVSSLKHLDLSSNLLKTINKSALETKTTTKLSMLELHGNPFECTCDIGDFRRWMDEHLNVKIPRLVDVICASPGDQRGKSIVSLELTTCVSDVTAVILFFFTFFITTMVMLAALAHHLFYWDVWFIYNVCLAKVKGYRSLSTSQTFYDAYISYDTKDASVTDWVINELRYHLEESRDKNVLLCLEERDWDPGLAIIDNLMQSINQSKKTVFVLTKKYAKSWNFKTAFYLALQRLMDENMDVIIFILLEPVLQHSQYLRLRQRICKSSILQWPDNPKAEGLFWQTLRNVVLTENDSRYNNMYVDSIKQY
Source text: In vitro pharmacology: HEK-293 cells (ATCC) were engineered to stably express a NF-kappaB transcription factor inducible E-selectin (ELAM-1) luciferase reporter derived from the plasmid pGL3 (Promega) containing base pairs −2241 bp to −254 bp from the promoter of the human E-selectin gene (Accession No. NM_000450). These cells were then subsequently engineered to stably and individually express human TLR4, TLR7 or TLR9 full-length ORF cDNAs. Human TLR4 cDNA (Accession No. NM_138554) was cloned into pcDNA 3.0 expression vector (Invitrogen). TLR4 transfected cells were also engineered to express human MD-2 co-receptor [MD-2 cDNA (Accession No. NM_015364) was cloned into the pEF-BOS vector] and were supplemented with 10 nM soluble CD14 (R&D Systems) in the media to optimize LPS responsiveness. Human TLR9 cDNA (Accession No. NM_017442) was cloned into the pBluescript II KS vector (Agilent). Human TLR7 cDNA (Accession No. NM_016562) was obtained from OriGene. HEK-293 cells stably expressing human TLR8 (Accession No. NM_138636) or mouse TLR7 (Accession No. NM_133211) were purchased from InvivoGen and were then stably transfected with pNiFty2(NF-kappaB)-luciferase reporter plasmid (InvivoGen). Each cell type was plated in Dulbecco's modified Eagle's medium (DMEM) containing 10% fetal bovine serum (FBS) at a density of 2.22×10^5 cells/ml into a 384-well plate and incubated for 2 days at 37° C., 5% CO2. Varying concentrations of antagonist compounds were then added. Cells were then incubated for another 30 minutes before adding the appropriate TLR agonist as follows (final concentrations indicated): lipopolysaccharide (LPS; Sigma) at 10 ng/ml for TLR4, CL097 (InvivoGen) at 3 ug/ml for human TLR7 and TLR8 and mouse TLR7, and CpG-2006-2A [sequence: […] (SEQ ID NO: 1) with phosphorothioate backbone, synthesized by Sigma-Aldrich] at 0.6 uM for TLR9.

Human TLR7/8 = test system: T2, Human TLR7/8; experiment: Human PBMC cell-based assay, RNA-Ig (SL4-Ig) stimulus, cytokine ELISA
T2 construct: IC50; other: Hu PBMC; ligand RNA-Ig; analyte IL-6; analyte TNFα; ligand R848; IC50 against the RNA-Ig TLR7/8 stimulus; cytokine responses to RNA-Ig complexes in vitro; potency against the RNA-Ig TLR7/8 stimulus versus HCQ
Procedure: (§1) Briefly, 25 ml blood was diluted with 15 ml PBS (without Ca^2+, Mg^2+) in a 50 ml conical tube, and 12 ml Histopaque was underlaid using a spinal needle. Tubes were centrifuged for 45 minutes at 1200 rpm (350×g), and PBMC were collected from the buffy coat. Cells were then washed twice in PBS, and red blood cells were lysed by suspension in 5 ml ammonium chloride solution (1× Red Blood Cell Lysis Buffer, eBioscience) for 5 minutes at room temperature.
Antagonist compounds solubilized and serial diluted in 100% DMSO were added in triplicate to cells to yield a final concentration of 0.1% DMSO (v/v). Hydroxychloroquine (Acros Organics) solubilized and serial diluted in PBS was added in triplicate to cells. […] The resulting “RNA-Ig” stimulus was incubated at room temperature for 15-30 minutes before adding to cells. PBMC were incubated with the various TLR agonists for 20 hours at 37° C., 5% CO2. Cell culture supernatants were collected, and levels of various human cytokines were assessed as indicated by standard ELISA procedure according to the manufacturer's recommended protocol (BD Biosciences, Inc., San Diego, Calif.).

Human TLR4 = Human TLR4 (Homo sapiens, UniProt O00206); experiment: Human PBMC cell-based assay, LPS stimulus, IL-6 ELISA; design: endogenous in cells; host or cells: primary human PBMC from healthy donor blood; conditions: Hu PBMC; ligand LPS; analyte IL-6
Chain of Human TLR4 (O00206 24-839): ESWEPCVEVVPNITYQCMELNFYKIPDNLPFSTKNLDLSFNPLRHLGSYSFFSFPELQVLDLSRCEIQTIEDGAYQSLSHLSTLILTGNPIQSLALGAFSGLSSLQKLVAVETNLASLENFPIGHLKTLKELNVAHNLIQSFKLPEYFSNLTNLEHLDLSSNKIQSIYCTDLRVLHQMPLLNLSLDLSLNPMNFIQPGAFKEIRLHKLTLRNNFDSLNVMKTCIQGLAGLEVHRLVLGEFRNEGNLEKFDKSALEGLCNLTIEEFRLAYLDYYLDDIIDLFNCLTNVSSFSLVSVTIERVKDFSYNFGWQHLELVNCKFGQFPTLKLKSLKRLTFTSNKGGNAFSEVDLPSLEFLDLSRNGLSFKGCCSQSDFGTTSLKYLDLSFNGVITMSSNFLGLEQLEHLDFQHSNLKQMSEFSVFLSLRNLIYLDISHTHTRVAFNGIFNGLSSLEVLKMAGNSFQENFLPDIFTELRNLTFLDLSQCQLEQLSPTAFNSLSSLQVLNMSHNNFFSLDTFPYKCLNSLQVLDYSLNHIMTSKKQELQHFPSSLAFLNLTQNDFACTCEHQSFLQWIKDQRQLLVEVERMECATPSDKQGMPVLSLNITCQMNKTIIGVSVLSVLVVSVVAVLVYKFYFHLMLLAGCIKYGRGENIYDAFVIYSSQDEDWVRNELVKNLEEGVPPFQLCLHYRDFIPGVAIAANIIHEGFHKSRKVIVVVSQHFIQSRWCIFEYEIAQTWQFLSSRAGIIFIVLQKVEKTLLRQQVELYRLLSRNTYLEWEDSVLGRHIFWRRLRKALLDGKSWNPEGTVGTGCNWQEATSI
Chain of Human TLR4 (Q9Y6Y9 19-160 partner): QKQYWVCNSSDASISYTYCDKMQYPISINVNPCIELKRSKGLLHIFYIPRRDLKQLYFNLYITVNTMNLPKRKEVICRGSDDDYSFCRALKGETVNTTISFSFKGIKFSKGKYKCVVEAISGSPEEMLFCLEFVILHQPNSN
Procedure: as §1, with “Human peripheral blood mononuclear cells (PBMC) were isolated from freshly-drawn heparinized (10 USP units/ml, Hospira, Lakeforest, Ill.) healthy donor whole blood by density gradient (Histopaque® 1077, Sigma, Inc., St. Louis, Mo.). Briefly,” for “Briefly,”, “temperature. […]” for “temperature.”
(§2) Antagonist compounds solubilized and serial diluted in 100% DMSO were added in triplicate to cells to yield a final concentration of 0.1% DMSO (v/v). […] Cell culture supernatants were collected, and levels of various human cytokines were assessed as indicated by standard ELISA procedure according to the manufacturer's recommended protocol (BD Biosciences, Inc., San Diego, Calif.).

Human TLR9 = target: T3, Human TLR9 (Homo sapiens, UniProt Q9NR96); experiment: Human PBMC cell-based assay, CpG-ODN stimulus, IL-6 ELISA; design: endogenous in cells; host or cells: primary human PBMC from healthy donor blood; conditions: Hu PBMC; ligand CpG-ODN; analyte IL-6
T3 sequence (Q9NR96 26-1032): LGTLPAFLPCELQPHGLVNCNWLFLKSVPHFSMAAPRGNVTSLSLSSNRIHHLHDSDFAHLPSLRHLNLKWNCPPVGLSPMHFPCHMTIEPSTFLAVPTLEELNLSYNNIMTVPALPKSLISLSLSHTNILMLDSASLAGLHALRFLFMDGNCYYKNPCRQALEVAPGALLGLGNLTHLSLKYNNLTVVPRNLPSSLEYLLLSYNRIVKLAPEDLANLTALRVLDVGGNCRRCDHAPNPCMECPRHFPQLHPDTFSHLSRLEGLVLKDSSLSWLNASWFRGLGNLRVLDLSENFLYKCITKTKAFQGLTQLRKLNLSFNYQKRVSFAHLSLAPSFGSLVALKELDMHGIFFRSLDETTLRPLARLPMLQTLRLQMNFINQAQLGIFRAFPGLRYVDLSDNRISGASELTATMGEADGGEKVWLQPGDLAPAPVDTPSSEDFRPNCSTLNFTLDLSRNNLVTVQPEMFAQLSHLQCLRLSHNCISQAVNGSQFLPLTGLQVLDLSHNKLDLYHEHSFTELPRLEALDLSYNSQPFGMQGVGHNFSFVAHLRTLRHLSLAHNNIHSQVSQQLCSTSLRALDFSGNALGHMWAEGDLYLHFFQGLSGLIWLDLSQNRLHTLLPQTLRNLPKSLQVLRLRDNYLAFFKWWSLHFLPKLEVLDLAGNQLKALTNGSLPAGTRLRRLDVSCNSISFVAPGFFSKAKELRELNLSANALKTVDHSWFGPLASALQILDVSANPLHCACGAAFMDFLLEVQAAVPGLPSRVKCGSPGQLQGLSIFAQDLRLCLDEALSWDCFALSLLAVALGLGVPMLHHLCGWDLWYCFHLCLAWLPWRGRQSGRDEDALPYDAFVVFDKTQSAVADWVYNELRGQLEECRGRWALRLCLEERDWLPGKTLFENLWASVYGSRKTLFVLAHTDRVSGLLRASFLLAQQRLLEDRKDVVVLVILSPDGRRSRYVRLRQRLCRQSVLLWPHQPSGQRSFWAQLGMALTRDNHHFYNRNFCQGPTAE
Procedure: as §1, with “Human peripheral blood mononuclear cells (PBMC) were isolated from freshly-drawn heparinized (10 USP units/ml, Hospira, Lakeforest, Ill.) healthy donor whole blood by density gradient (Histopaque® 1077, Sigma, Inc., St. Louis, Mo.). Briefly,” for “Briefly,”, “temperature. […]” for “temperature.”
as §2

[1] = Human PBMC IL-6 Inhibition (SL4-Ig Ligand), read-out: Human PBMC IC50

Structure (SMILES): COc1cc(-c2cc3n(n2)C(C(F)(F)F)CC(c2ccc(OC)c(OC)c2)N3)ccn1 (racemic) [ER-886434]
- IC50 (Human TLR8): 0.3 µM
- IC50 (Human TLR7/8; [1]): 0.414 µM

Structure (SMILES): Cc1nn(C)cc1C1CC(C(F)(F)F)n2nc(-c3ccc4c(cnn4C)c3C)cc2N1 (stereo not drawn) [ER-892900]
- IC50 (Human TLR8): 0.33 µM
- IC50 (Human TLR7/8; [1]): 0.744 µM

Structure (SMILES): COc1ccc([C@H]2C[C@@H](C(F)(F)F)n3nc(-c4ccc(C(=O)N5CCNCC5)cc4)cc3N2)cc1OC [ER-892924]
- IC50 (Human TLR8): 0.22 µM
- IC50 (Human TLR7/8; [1]): 0.16 µM

Structure (SMILES): Cc1nn(C)cc1[C@H]1C[C@@H](C(F)(F)F)n2nc(-c3ccc4c(cnn4C)c3C)cc2N1 [ER-893987]
- IC50 (Human TLR8): 0.22 µM
- IC50 (Human TLR7/8; [1]): 2.11 µM

Structure (SMILES): CCN(CCO)CCCC(C)Nc1ccnc2cc(Cl)ccc12 (stereo not drawn) [HCQ, Hydroxychloroquine, reference compound]
- IC50 (Human TLR7/8; Hu PBMC, ligand RNA-Ig, analyte IL-6, read-out: IC50): 1 to 2 µM
- IC50 (Human TLR7/8; read-out: IC50 against the RNA-Ig TLR7/8 stimulus): ~1.5 µM
- IC50 (Human TLR4): > 10 µM
- IC50 (Human TLR9): 0.15 to 0.3 µM
